Values of other authors, collected in patent US20060128792A1, “Deguelin as a chemopreventive agent for lung cancer” (priority 2002, published 2006).
Where two headings read alike, the source gives them in different places.

Test system: ovarian, breast and lung cancers
Conditions: cited from earlier work

CC(=O)O[C@H]1C(=O)[C@@]2(C)[C@H]([C@H](OC(=O)c3ccccc3)[C@]3(O)C[C@H](OC(=O)[C@H](O)[C@@H](NC(=O)c4ccccc4)c4ccccc4)C(C)=C1C3(C)C)[C@]1(OC(C)=O)CO[C@@H]1C[C@@H]2O [taxol, Paclitaxel]
response rate (advanced drug refractory ovarian cancer): 19-36%
response rate (previously treated metastatic breast cancer): 27-62%
response rate (various lung cancers): 21-37%
